In the NIST ThermoML archive (doi:10.1016/j.jct.2014.09.005):
± gives the expanded uncertainty stated by the source.

Columns and labels:
[1] = xn = mol fraction of the nth substance listed; conditions: 101 kPa, Liquid; for viscosity: Capillary tube (Ostwald / Ubbelohde) method; for mass density: Vibrating tube method
[2] = refractive index (Na D-line) (dimensionless); xn = mol fraction of the nth substance listed; conditions: 101 kPa, Liquid, Standard Abbe refractometry

NC1CCCCC1 [cyclohexylamine] + CCCCCCCCCCO
Conditions	mass density, [1] [kg/m3]	refractive index, [2]	viscosity, [1] [mPa·s]
293.15 K, x2 = 0.0957	–	1.4563 ± 0.00037	–
293.15 K, x2 = 0.153	860.33 ± 0.23	1.45514 ± 0.00037	3.133 ± 0.067
293.15 K, x2 = 0.1955	–	1.45413 ± 0.00037	–
293.15 K, x2 = 0.1956	858.62 ± 0.23	–	3.48 ± 0.074
293.15 K, x2 = 0.2939	855.14 ± 0.24	1.45191 ± 0.00037	4.452 ± 0.094
293.15 K, x2 = 0.3417	853.45 ± 0.24	1.45101 ± 0.00037	5.014 ± 0.11
293.15 K, x2 = 0.4077	851.25 ± 0.24	1.44965 ± 0.00037	5.81 ± 0.12
293.15 K, x2 = 0.4581	849.54 ± 0.24	1.44855 ± 0.00037	6.48 ± 0.14
293.15 K, x2 = 0.5059	847.91 ± 0.24	1.44765 ± 0.00037	7.159 ± 0.15
293.15 K, x2 = 0.5401	846.76 ± 0.24	–	7.628 ± 0.16
293.15 K, x2 = 0.6042	844.53 ± 0.24	1.44562 ± 0.00037	8.558 ± 0.18
293.15 K, x2 = 0.6538	842.75 ± 0.24	1.44463 ± 0.00037	9.276 ± 0.2
293.15 K, x2 = 0.7021	840.98 ± 0.24	1.44358 ± 0.00037	9.963 ± 0.21
293.15 K, x2 = 0.8084	837.02 ± 0.24	1.44133 ± 0.00037	11.52 ± 0.24
293.15 K, x2 = 0.8868	834.1 ± 0.24	1.43957 ± 0.00037	12.69 ± 0.27
298.15 K, x2 = 0.0957	–	1.45392 ± 0.00037	–
298.15 K, x2 = 0.153	856.19 ± 0.24	1.45279 ± 0.00037	2.749 ± 0.058
298.15 K, x2 = 0.1955	–	1.45174 ± 0.00037	–
298.15 K, x2 = 0.1956	854.54 ± 0.24	–	3.049 ± 0.065
298.15 K, x2 = 0.2939	851.2 ± 0.24	1.44964 ± 0.00037	3.853 ± 0.082
298.15 K, x2 = 0.3417	849.56 ± 0.24	1.44874 ± 0.00037	4.308 ± 0.091
298.15 K, x2 = 0.4077	847.42 ± 0.24	1.44743 ± 0.00037	4.923 ± 0.1
298.15 K, x2 = 0.4581	845.76 ± 0.24	1.44648 ± 0.00037	5.456 ± 0.12
298.15 K, x2 = 0.5059	844.17 ± 0.24	1.44554 ± 0.00037	5.991 ± 0.13
298.15 K, x2 = 0.5401	843.04 ± 0.24	1.44481 ± 0.00037	6.38 ± 0.14
298.15 K, x2 = 0.6042	840.86 ± 0.24	1.44365 ± 0.00037	7.124 ± 0.15
298.15 K, x2 = 0.6538	839.13 ± 0.24	1.44254 ± 0.00037	7.689 ± 0.16
298.15 K, x2 = 0.7021	837.39 ± 0.24	1.44141 ± 0.00037	8.24 ± 0.17
298.15 K, x2 = 0.8084	833.53 ± 0.24	1.43935 ± 0.00037	9.512 ± 0.2
298.15 K, x2 = 0.8868	830.66 ± 0.24	1.43762 ± 0.00037	10.41 ± 0.22
303.15 K, x2 = 0.0957	–	1.4514 ± 0.00037	–
303.15 K, x2 = 0.153	851.99 ± 0.24	1.45031 ± 0.00037	2.406 ± 0.051
303.15 K, x2 = 0.1955	–	1.44938 ± 0.00037	–
303.15 K, x2 = 0.1956	850.41 ± 0.24	–	2.663 ± 0.057
303.15 K, x2 = 0.2939	847.19 ± 0.24	1.44747 ± 0.00037	3.347 ± 0.071
303.15 K, x2 = 0.3417	845.61 ± 0.24	1.44642 ± 0.00037	3.711 ± 0.079
303.15 K, x2 = 0.4077	843.53 ± 0.24	1.44514 ± 0.00037	4.216 ± 0.089
303.15 K, x2 = 0.4581	841.91 ± 0.24	1.44424 ± 0.00037	4.654 ± 0.099
303.15 K, x2 = 0.5059	840.37 ± 0.24	1.44335 ± 0.00037	5.075 ± 0.11
303.15 K, x2 = 0.5401	839.27 ± 0.24	1.44256 ± 0.00037	5.393 ± 0.11
303.15 K, x2 = 0.6042	837.14 ± 0.24	1.44137 ± 0.00037	5.985 ± 0.13
303.15 K, x2 = 0.6538	835.46 ± 0.24	1.44039 ± 0.00037	6.457 ± 0.14
303.15 K, x2 = 0.7021	833.76 ± 0.24	1.43943 ± 0.00037	6.893 ± 0.15
303.15 K, x2 = 0.8084	829.98 ± 0.24	1.43724 ± 0.00037	7.904 ± 0.17
303.15 K, x2 = 0.8868	827.17 ± 0.24	1.43565 ± 0.00037	8.649 ± 0.18
